Measurements: patent publication EP3748362A1, “IN VITRO METHOD FOR DETECTING RENAL DISEASE” (Fundacion Instituto De Investigacion Sanitaria Fundacion …, priority 2019, dated 2020)
Entries after “also recorded” stand apart in the source; their conditions may differ.

Experiments:
[1] = system: proinflammatory gene expression; experiment: Proinflammatory gene expression (real time PCR) in PBMCs from ESRD patients; type: in vivo, human; conditions: ESRD patients treated with paricalcitol vs untreated ESRD hemodialysis patients
Method: Intracellular protein and mRNA levels were measured in PBMCs from ESRD patients on hemodialysis. Inclusion criteria were as follows: age >45 years; male sex; informed consent; and absence of active inflammatory, infectious, or malignant diseases at the initiation or during the study. This study was approved by the IIS-Fundación Jiménez Diaz Ethics Committee. Patients were enrolled after providing written informed consent. PBMCs were separated from whole blood samples (30 ml into EDTA tubes) by a density gradient centrifugation method using Ficoll density gradient centrifugation. In total, 50x10^6 of PBMCs were obtained from 30 ml of whole blood and 6x10^6 PBMCs were used to isolate protein, RNA and nuclear/cytosolic protein levels using the NE-PER Reagent (Pierce) following the manufacturer's instructions.
Total RNA was isolated from cells and mouse kidney samples with Trizol (Invitrogen). The cDNA was synthesized using the High-Capacity cDNA Archive Kit (Applied Biosystems) using 2 µg total RNA primed with random hexamer primers. […] The mRNA copy numbers were calculated for each sample by the instrument software using Ct value. Results are expressed in copy numbers, calculated relative to unstimulated cells or control mice, after normalization against 18S.

NF-κB1 = experiment: Canonical NF-κB1 activation (western blot) in TWEAK-stimulated HK2 cells; type: cell-based, Human; conditions: 12 µM paricalcitol for 48 hours, TWEAK 100 ng/ml 15 min, p65 and IκBα phosphorylation
Method: Human kidney proximal tubule epithelial cells (HK2 cell line, ATCC CRL-2190) were grown in RPMI 1640 with 10% fetal bovine serum (FBS), 1% glutamine, 100 U/ml penicillin, 100 µg/ml streptomycin, 5 µg/ml insulin-transferrin-selenite and 36 ng/ml hydrocortisone in 5% CO2 at 37° C. When cells reached 60 to 70% confluence, they were serum-depleted for 24 hours before the experiment.
Cells were stimulated with 100ng/ml recombinant human soluble TWEAK (Millipore) or p-200 µg/ml cresyl-sulfate (Raymond Vanholder and Griet Glorieux, University of Gent, Belgium). Concentrations of TWEAK and p-cresyl-sulfate were based on previously published dose-response experiments (Poveda et al. 2014; Sanz et al. 2008). In some experiments cells were preincubated for 48 hours with the paricalcitol 12 µmol/L (Abbott) prior to stimulation. DMSO, used as a solvent in some cases, had no effect on cell viability or on gene expression levels.
For western blot, cell (25 µg/lane) and kidney (100-150 µg/lane) protein extracts were separated on 6%-12% polyacrylamide-SDS gels under reducing conditions. […] Autoradiographs were scanned using the Gel Doc™ EZ imager and analyzed with the Image Lab 3.0 software (BioRad).

NF-κB2 = experiment: Non-canonical NF-κB2 activation and dependent cytokines, folic acid-induced renal injury in mice; type: in vivo; conditions: folic acid 300 mg/kg model; paricalcitol 25 µg/kg/day i.p.
Method: All animal procedures were performed according to the guidelines of animal research in the European Community and with prior approval by the Ethics Committee of the Health Research of the IIS-Fundacion Jiménez Díaz. For in vivo studies, mice received a daily intraperitoneal injection of the VDRA Paricalcitol starting 48 hours prior to induction of kidney damage.
At the time of sacrifice, animals were anesthetized with 5 mg/kg xylazine (Rompun, Bayer AG) and 35 mg/kg ketamine (Ketolar, Pfizer) and the kidneys perfused in situ with cold saline before removal. Then, kidney portions were fixed in formalin buffer for immunohistochemistry studies or immediately frozen in liquid nitrogen for gene and protein studies. […]
Paraffin-embedded kidney sections (3 µm) were stained using conventional methods. […] For each sample (processed by duplicate in a blinded manner), the average value was obtained from the analysis of 4 fields (20X objective) as density/mm2 or percentage stained area vs total analyzed area. Data are expressed as fold increase over control mice, as mean ± SEM of 8-10 animals per group. […]
For western blot, cell (25 µg/lane) and kidney (100-150 µg/lane) protein extracts were separated on 6%-12% polyacrylamide-SDS gels under reducing conditions. […] Autoradiographs were scanned using the Gel Doc™ EZ imager and analyzed with the Image Lab 3.0 software (BioRad). […]

## C[C@H](/C=C/[C@H](C)C(C)(C)O)[C@H]1CC[C@H]2/C(=C/C=C3C[C@@H](O)C[C@H](O)C3)CCC[C@]12C [paricalcitol]
[1]
  proinflammatory gene expression levels: significantly lower
NF-κB1
  TWEAK-induced NF-κB1 activation: did not modulate
NF-κB2
  NF-κB2 activation, as determined by RelB and p52 levels, nuclear translocation and RelB DNA-binding activity: decreased; also recorded: blocked
  gene and protein expression of NF-κB2-dependent cytokines, such as CCL21A, as well as other pro-inflammatory factors: blocked
